Experimental findings from publication PMC10235067, “Increased renal elimination of endogenous and synthetic pyrimidine nucleosides in concentrative nucleoside transporter 1 deficient mice” (Nature Communications, 2023) are described below.

For series [1], the system named is CNT1.
Procedure: Linearity was established for analytes over the concentration ranges observed and the lower limit of quantification of the LC–MS/MS assay was approximately 0.1 ng/ml for each analyte (Fig. S2).
Standard solutions of all nucleotide targets were serially diluted to generate calibration solutions at concentrations of 0.0, 0.0001, 0.001, 0.01, 0.1, 1.0, and 10 µg/ml. Urine samples were prepared by adding 20 µL of urine solution to 80 µL of 50:50 H2O:MeOH containing internal standard, vortexing and centrifuging at 20,000 × g; then, 50 µL aliquots were placed into glass vials, dried in a SpeedVac and reconstituted in 5% MeOH with 0.1% formic acid for injection.
Samples were quantified using a heated electrospray ionization source (HESI) on a Thermo Scientific TQS Quantiva triple quadrupole mass spectrometer, and separation was achieved using a Thermo Scientific Ultimate 3000 HPLC equipped with an Agilent 120 SB-C18 reversed-phase column (2 × 100 mm, 2.7 µm particle size) maintained at 40 °C. […] For all experiments, the capillary voltage was set to 4.5 kV with a capillary temperature of 350 °C, a vaporizer temperature of 100 °C, a sheath gas flow of 12, an auxiliary gas flow of 13, and a 1.6 sweep gas. For selected reaction monitoring (SRM) mode, Q1 and Q3 were set to 0.7 full width at half maximum (FWHM) resolution, a cycle time of 0.8 s, and a CID gas pressure of 1.5 mTorr.
The nature of series [2]: Gemcitabine urine pharmacokinetics (renal excretion) in Slc28a1+/+ and Slc28a1-/- mice. Conditions: WT and KO mouse urine pooled 10 min to 2 h after dFdC 50 mg/kg i.v. As for the experimental part:
THU was added to the mouse urine samples upon collection and frozen until analysis. […] Five microliters of the diluted samples were transferred to a 96-well autosampler plate then 10 µL of internal standard mixture was added and mixed. […] The plate was then transferred to the 4 °C autosampler for analysis.
The chromatographic separation was performed on a Thermo Accucore aQ 2.6 µm, 100 ×2.1 mm column at 30 °C using a gradient with a 10 µL injection volume. The mobiles phases were 1 mM ammonium acetate in deionized water pH 6.8 and acetonitrile. The total run time was 5.5 min. […] The LC–MS/MS analysis was conducted on a Thermo Vanquish UHPLC with a TSQ Quantiva mass spectrometer equipped with an electrospray ionization source.

The nature of series [3]: Gemcitabine plasma pharmacokinetics in Slc28a1+/+ and Slc28a1-/- mice. The note with it: Slc28a1+/+ and Slc28a1-/- mice; single i.v. dFdC 50 mg/kg.
Procedure: To collect blood, a 5 mm lancet was used to apply pressure to the submandibular vein and release blood flow. For retro-orbital collection, mice were anesthetized with 3% isoflurane in oxygen, and the blood was collected directly into heparinized capillary tubes by applying slight pressure to the medial canthus of the eye. Cardiac puncture was performed as the final collection method by first euthanizing the mice in a CO2 chamber and immediately performing posterior cardiac puncture by inserting a 27 G needle with a 1 ml syringe attachment into the heart. Once blood collection was completed, gentle pressure was applied to the blood collection area using gauze to stop the bleeding. Thirty microliters of blood was collected into heparinized capillary tubes at each time point, transferred into prelabeled 0.5 ml microcentrifuge tubes containing THU (10 µg/ml; final concentration), and immediately processed and snap-frozen following procedures outlined in the “Gemcitabine plasma pharmacokinetics” methods section.
Gemcitabine and dFdU plasma concentrations were measured using a modified version of our previously published UHPLC–MS/MS method for nucleosides[74] […] Noncompartmental pharmacokinetic parameters (Cmax, Tmax, AUC, CL, T1/2, etc.) were calculated using WinNonlin 6.2 software (Pharsight; Mountain View, CA). […] The Cmax and Tmax were obtained from the concentration-time curve. The AUC was calculated according to the linear trapezoidal rule up to the last time point with a measurable concentration of the analyte of interest. Significant differences between Slc28a1^+/+ and Slc28a1^−/− mouse pharmacokinetic parameters (p < 0.05) were evaluated with an unpaired two-sided Student’s t-test.
The resulting supernatant was evaporated to dryness in a SpeedVac, and the remaining residue was reconstituted in mobile phase A for subsequent analysis. […] Subsequent processing was identical to that for the plasma and urine samples.
Briefly, the analysis was performed on an Imtakt Schzero SM C18 column, 2.1 × 100 mm, 3.0 µm particle size. The eluents used consisted of mobile phase A consisting of 50 mM ammonium formate:50 mM ammonium hydroxide (9:1, v/v) (pH = 8.6) and mobile phase B consisting of 50 mM ammonium formate:50 mM ammonium hydroxide (9:1, v/v):ACN (80:20, v/v) (pH = 8.6). […] The injection volume was 10 μL, and the autosampler temperature was set at 4 °C throughout the analysis.
The Waters Triple Quadrupole Mass Spectrometer with an ESI source was operated in negative and positive ion mode at a spray voltage of 2.5 kV, capillary temperature of 150 °C, and vaporizer temperature of 250 °C. Compound optimization was performed manually using the MassLynx 4.1 Software AutoTune Wizard (Waters, Milford, MA) by infusion into the mass spectrometer using a T-connector. […] Analyze concentrations were determined and analyzed using MassLynx Mass Spectrometry Software (Waters; Milford, MA).

SMILES strings stand for the structures.

On to `Nc1nc2c(ncn2[C@@H]2O[C@H](CO)[C@@H](O)[C@H]2O)c(=O)[nH]1` [Guanosine], for which, in series [1] (12 h starvation), the “concentration in urine, Slc28a1+/+ vs Slc28a1-/-” value is listed as “not significantly different”.

For the molecule `Cc1cn([C@H]2C[C@H](O)[C@@H](CO)O2)c(=O)[nH]c1=O` [Thymidine], in series [1] (Slc28a1-/- vs Slc28a1+/+, urine collected over 12 h starvation, 8-week-old mice, n = 6), the “fold increase of content in urine of Slc28a1-/- mice” value amounted to 7.5 fold.

Regarding `Nc1ccn([C@@H]2O[C@H](COP(=O)(O)OP(=O)(O)OP(=O)(O)O)[C@@H](O)C2(F)F)c(=O)n1` [dFdC-TP, dFdC triphosphate], the “level in urine after dFdC dosing” value in series [2] is given as “below the limits of quantification”. In addition, the “plasma level after dFdC dosing” value in series [3] was “did not detect appreciable quantities”.
